# From the supplement of paper PMC10307832
# Assays:
# Test in all cases: relative viability (nuclei count vs DMSO), 5 days (fraction); higher = more cells survive
# 201T = tested on: 201T
# Procedure, shortened: (§1)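 Relative viability was taken as the ratio of nuclei in treated wells to nuclei in vehicle wells. Lung cancer cell lines in 1536-well plates received compounds by pin tool one day after seeding, either one drug alone or a fixed anchor-drug dose plus five library-drug doses (not always all listed) in √10 steps. Nuclei were counted on 4× images after 5 days of treatment, and values are medians of duplicate plates.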
# ABC-1 = tested on: ABC-1
# Procedure, shortened: as §1
# CAL-12T = tested on: CAL-12T
# Procedure, shortened: as §1
# COR-L23 = tested on: COR-L23
# Procedure, shortened: as §1
# HOP-62 = tested on: HOP-62
# Procedure, shortened: as §1
# LC-2-ad = tested on: LC-2-ad
# Procedure, shortened: as §1
# LCLC-103H = tested on: LCLC-103H
# Procedure, shortened: as §1
# NCI-H1355 = tested on: NCI-H1355
# Procedure, shortened: as §1
# NCI-H1395 = tested on: NCI-H1395
# Procedure, shortened: as §1
# NCI-H1651 = tested on: NCI-H1651
# Procedure, shortened: as §1
# NCI-H1666 = tested on: NCI-H1666
# Procedure, shortened: as §1
# NCI-H1993 = tested on: NCI-H1993
# Procedure, shortened: as §1
# NCI-H2085 = tested on: NCI-H2085
# Procedure, shortened: as §1
# NCI-H2170 = tested on: NCI-H2170
# Procedure, shortened: as §1
# NCI-H2228 = tested on: NCI-H2228
# Procedure, shortened: as §1
# NCI-H2347 = tested on: NCI-H2347
# Procedure, shortened: as §1
# NCI-H23 = tested on: NCI-H23
# Procedure, shortened: as §1
# NCI-H322M = tested on: NCI-H322M
# Procedure, shortened: as §1
# NCI-H520 = tested on: NCI-H520
# Procedure, shortened: as §1
# NCI-H647 = tested on: NCI-H647
# Procedure, shortened: as §1
# NCI-H661 = tested on: NCI-H661
# Procedure, shortened: as §1
# NCI-H838 = tested on: NCI-H838
# Procedure, shortened: as §1
smiles,measurement,setting,value
O=c1[nH]c2ccccc2n1C1CCN(CCCC(c2ccc(F)cc2)c2ccc(F)cc2)CC1 [Pimozide] + COc1cc2c(Oc3ccc(NC(=O)C4(C(=O)Nc5ccc(F)cc5)CC4)cc3F)ccnc2cc1OCCCN1CCOCC1 [Foretinib] (partner 0.25 µM),relative viability,201T; first compound 0.08 µM,1.08
same,relative viability,201T; first compound 0.253 µM,1.06
same,relative viability,201T; first compound 0.8 µM,0.979
same,relative viability,201T; first compound 2.53 µM,1.02
same,relative viability,201T; first compound 8 µM,0.909
same,relative viability,ABC-1; first compound 0.08 µM,1.11
same,relative viability,ABC-1; first compound 0.253 µM,0.995
same,relative viability,ABC-1; first compound 0.8 µM,0.723
same,relative viability,ABC-1; first compound 2.53 µM,0.891
same,relative viability,ABC-1; first compound 8 µM,0.767
same,relative viability,CAL-12T; first compound 0.08 µM,0.979
same,relative viability,CAL-12T; first compound 0.253 µM,1.17
same,relative viability,CAL-12T; first compound 0.8 µM,1.11
same,relative viability,CAL-12T; first compound 2.53 µM,0.928
same,relative viability,CAL-12T; first compound 8 µM,0.96
same,relative viability,COR-L23; first compound 0.08 µM,1.01
same,relative viability,COR-L23; first compound 0.253 µM,0.951
same,relative viability,COR-L23; first compound 0.8 µM,0.909
same,relative viability,COR-L23; first compound 2.53 µM,1.05
same,relative viability,COR-L23; first compound 8 µM,0.905
same,relative viability,HOP-62; first compound 0.08 µM,1.05
same,relative viability,HOP-62; first compound 0.253 µM,1.14
same,relative viability,HOP-62; first compound 2.53 µM,1.04
same,relative viability,HOP-62; first compound 8 µM,1.03
same,relative viability,LC-2-ad; first compound 0.08 µM,0.911
same,relative viability,LC-2-ad; first compound 0.253 µM,0.928
same,relative viability,LC-2-ad; first compound 0.8 µM,0.909
same,relative viability,LC-2-ad; first compound 2.53 µM,0.901
same,relative viability,LC-2-ad; first compound 8 µM,0.868
same,relative viability,LCLC-103H; first compound 0.08 µM,0.946
same,relative viability,LCLC-103H; first compound 0.253 µM,0.716
same,relative viability,LCLC-103H; first compound 0.8 µM,0.747
same,relative viability,LCLC-103H; first compound 2.53 µM,0.678
same,relative viability,LCLC-103H; first compound 8 µM,0.591
same,relative viability,NCI-H1355; first compound 0.08 µM,0.808
same,relative viability,NCI-H1355; first compound 0.253 µM,0.923
same,relative viability,NCI-H1355; first compound 0.8 µM,0.888
same,relative viability,NCI-H1355; first compound 2.53 µM,0.886
same,relative viability,NCI-H1355; first compound 8 µM,1
same,relative viability,NCI-H1395; first compound 0.08 µM,1.02
same,relative viability,NCI-H1395; first compound 0.253 µM,0.975
same,relative viability,NCI-H1395; first compound 0.8 µM,0.953
same,relative viability,NCI-H1395; first compound 2.53 µM,1.03
same,relative viability,NCI-H1395; first compound 8 µM,0.91
same,relative viability,NCI-H1651; first compound 0.08 µM,0.763
same,relative viability,NCI-H1651; first compound 0.253 µM,0.717
same,relative viability,NCI-H1651; first compound 0.8 µM,0.867
same,relative viability,NCI-H1651; first compound 2.53 µM,0.871
same,relative viability,NCI-H1651; first compound 8 µM,0.869
same,relative viability,NCI-H1666; first compound 0.08 µM,0.952
same,relative viability,NCI-H1666; first compound 0.253 µM,0.939
same,relative viability,NCI-H1666; first compound 0.8 µM,0.941
same,relative viability,NCI-H1666; first compound 2.53 µM,0.867
same,relative viability,NCI-H1666; first compound 8 µM,0.857
same,relative viability,NCI-H1993; first compound 0.08 µM,0.705
same,relative viability,NCI-H1993; first compound 0.253 µM,0.777
same,relative viability,NCI-H1993; first compound 0.8 µM,0.727
same,relative viability,NCI-H1993; first compound 2.53 µM,0.788
same,relative viability,NCI-H1993; first compound 8 µM,0.851
same,relative viability,NCI-H2085; first compound 0.08 µM,0.956
same,relative viability,NCI-H2085; first compound 0.253 µM,0.899
same,relative viability,NCI-H2085; first compound 0.8 µM,1.1
same,relative viability,NCI-H2085; first compound 2.53 µM,0.909
same,relative viability,NCI-H2085; first compound 8 µM,0.949
same,relative viability,NCI-H2170; first compound 0.08 µM,1.04
same,relative viability,NCI-H2170; first compound 0.253 µM,1.03
same,relative viability,NCI-H2170; first compound 0.8 µM,0.985
same,relative viability,NCI-H2170; first compound 2.53 µM,0.99
same,relative viability,NCI-H2170; first compound 8 µM,1.06
same,relative viability,NCI-H2228; first compound 0.08 µM,0.863
same,relative viability,NCI-H2228; first compound 0.253 µM,0.839
same,relative viability,NCI-H2228; first compound 0.8 µM,0.574
same,relative viability,NCI-H2228; first compound 2.53 µM,0.831
same,relative viability,NCI-H2228; first compound 8 µM,0.612
same,relative viability,NCI-H2347; first compound 0.08 µM,0.883
same,relative viability,NCI-H2347; first compound 0.253 µM,0.622
same,relative viability,NCI-H2347; first compound 0.8 µM,0.964
same,relative viability,NCI-H2347; first compound 2.53 µM,1.35
same,relative viability,NCI-H2347; first compound 8 µM,1.07
same,relative viability,NCI-H23; first compound 0.08 µM,0.676
same,relative viability,NCI-H23; first compound 0.253 µM,1.07
same,relative viability,NCI-H23; first compound 0.8 µM,0.833
same,relative viability,NCI-H23; first compound 2.53 µM,0.712
same,relative viability,NCI-H23; first compound 8 µM,0.829
same,relative viability,NCI-H322M; first compound 0.253 µM,1.04
same,relative viability,NCI-H322M; first compound 0.8 µM,0.85
same,relative viability,NCI-H322M; first compound 2.53 µM,0.942
same,relative viability,NCI-H322M; first compound 8 µM,0.844
same,relative viability,NCI-H520; first compound 0.08 µM,0.886
same,relative viability,NCI-H520; first compound 0.253 µM,0.779
same,relative viability,NCI-H520; first compound 0.8 µM,0.618
same,relative viability,NCI-H520; first compound 2.53 µM,0.916
same,relative viability,NCI-H520; first compound 8 µM,0.898
same,relative viability,NCI-H647; first compound 0.08 µM,1.28
same,relative viability,NCI-H647; first compound 0.253 µM,1.17
same,relative viability,NCI-H647; first compound 0.8 µM,1.14
same,relative viability,NCI-H647; first compound 2.53 µM,1.22
same,relative viability,NCI-H647; first compound 8 µM,1.17
same,relative viability,NCI-H661; first compound 0.08 µM,1.02
same,relative viability,NCI-H661; first compound 0.253 µM,1.03
same,relative viability,NCI-H661; first compound 0.8 µM,0.929
same,relative viability,NCI-H661; first compound 2.53 µM,0.921
same,relative viability,NCI-H661; first compound 8 µM,0.907
same,relative viability,NCI-H838; first compound 0.08 µM,1.02
same,relative viability,NCI-H838; first compound 0.253 µM,1.11
same,relative viability,NCI-H838; first compound 0.8 µM,1.08
same,relative viability,NCI-H838; first compound 2.53 µM,1.03
same,relative viability,NCI-H838; first compound 8 µM,1.04
